This is an account of results in ChEMBL document CHEMBL1201862, “PubChem BioAssay data set” (2004).

Molecules are shown by their SMILES.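 Five compound concentrations were applied to cells in 96-well plates for 48 hours; endpoints were derived by simple linear interpolation of the resulting dose-response curve. GI50 is the concentration that inhibits growth by half.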 The source made the active and inactive calls. Rule as the data show it: active = GI50 up to about 1.1 µM and inactive = higher.

Test systems include CAKI-1; UACC-257; SK-MEL-2; NCI-H460; CCRF-CEM; COLO 205; UO-31; SK-MEL-5; SK-MEL-28; TK-10; A549; OVCAR-5; SF-539; KM12; OVCAR-3; RPMI-8226.
Holding throughout (assay): NCI-60 cell line screen, 48 h

As to `CCOC(=O)c1c2ccc(/C=C/c3ccccn3)ccc-2c(C(=O)OCC)c1N`, the GI50 was > 100 µM (inactive) in the assay with CAKI-1; > 100 µM (inactive) in the assay with UACC-257; > 100 µM (inactive) in the assay with SK-MEL-2; 89.1 µM (inactive) with NCI-H460; > 100 µM (inactive) in the assay on CCRF-CEM; > 100 µM (inactive) in the assay with COLO 205. In addition, the GI50 is > 100 µM (inactive) in the assay with UO-31; > 100 µM (inactive) with SK-MEL-5; 0.361 µM (active) with SK-MEL-28; > 100 µM (inactive) in the assay on TK-10; > 100 µM (inactive) with A549; > 100 µM (inactive) with OVCAR-5. Besides, the GI50 was 88.9 µM (inactive) in the assay on SF-539, > 100 µM (inactive) with KM12 and > 100 µM (inactive) with OVCAR-3.

Consider `NC(=S)N/N=C/C(O[C@@H](/C=N/NC(N)=S)CO)n1cnc2c(N)ncnc21` (stereo partly specified), for which the GI50 in the assay on CAKI-1 is > 100 µM (inactive); with UACC-257, > 100 µM (inactive); in the assay with RPMI-8226, > 45 µM (inactive); in the assay on NCI-H460 it was > 80.5 µM (inactive); in the assay with CCRF-CEM it was 37.2 µM (inactive); in the assay with COLO 205, > 49.8 µM (inactive). Moreover, the GI50 with UO-31 is > 100 µM (inactive); with SK-MEL-5 it was 44.6 µM (inactive); in the assay on SK-MEL-28, > 100 µM (inactive); in the assay on TK-10, > 100 µM (inactive); with A549, > 65.3 µM (inactive); with OVCAR-5, > 100 µM (inactive). Moreover, the GI50 in the assay with SF-539 was > 100 µM (inactive); in the assay on KM12, > 100 µM (inactive); in the assay with OVCAR-3, > 55.3 µM (inactive).

On to `C/C(CC(=O)Nc1ccccc1[N+](=O)[O-])=N\NC(N)=O`, for which the GI50 in the assay on UACC-257, with SK-MEL-2, in the assay on RPMI-8226, with NCI-H460, in the assay on CCRF-CEM and with COLO 205 was > 100 µM (inactive) each time. Also, the GI50 in the assay with UO-31, in the assay with SK-MEL-5, in the assay with SK-MEL-28, in the assay on TK-10, in the assay with A549 and in the assay with OVCAR-5 was > 100 µM (inactive) in each case. For the same molecule, the GI50 in the assay with SF-539, with KM12 and with OVCAR-3 was > 100 µM (inactive) throughout.

As for `CN1CCN=C1c1nnn(-c2ccc([N+](=O)[O-])cc2)c1-c1ccccc1`, the GI50 was > 100 µM (inactive) in the assay with CAKI-1; > 100 µM (inactive) in the assay with UACC-257; > 100 µM (inactive) in the assay with SK-MEL-2; > 100 µM (inactive) in the assay on NCI-H460; 24.7 µM (inactive) in the assay on CCRF-CEM; > 100 µM (inactive) with COLO 205. The GI50 is 75.5 µM (inactive) with UO-31; > 100 µM (inactive) in the assay on SK-MEL-5; > 100 µM (inactive) in the assay on SK-MEL-28; > 100 µM (inactive) in the assay with TK-10; > 100 µM (inactive) with A549; > 100 µM (inactive) in the assay on OVCAR-5. The GI50 in the assay on SF-539, in the assay on KM12 and with OVCAR-3 was > 100 µM (inactive) in each case.

As to `COc1ccc(C(=O)O)c(Cc2cccc3ccccc23)c1`, the GI50 in the assay with CAKI-1 was 73.5 µM (inactive); in the assay on UACC-257, > 100 µM (inactive); in the assay on SK-MEL-2 it was > 100 µM (inactive); in the assay on NCI-H460, > 100 µM (inactive); with CCRF-CEM it was > 100 µM (inactive); with COLO 205, > 100 µM (inactive). For the same molecule, the GI50 in the assay on UO-31, with SK-MEL-5, with SK-MEL-28, in the assay on TK-10, with A549 and in the assay on OVCAR-5 was > 100 µM (inactive) throughout. Also, the GI50 in the assay with KM12 is > 100 µM (inactive); in the assay on OVCAR-3, 64.3 µM (inactive).

Turning to `CC1/C(=N\O)CC(c2ccccc2)N(C)C1c1ccccc1` (stereo unspecified), the GI50 with CAKI-1, in the assay on UACC-257, in the assay on SK-MEL-2, in the assay on NCI-H460, in the assay with CCRF-CEM and in the assay on COLO 205 was > 100 µM (inactive) throughout. The GI50 in the assay with UO-31, in the assay with SK-MEL-5, in the assay on SK-MEL-28, with TK-10, in the assay on A549 and in the assay with OVCAR-5 was > 100 µM (inactive) throughout. For the same molecule, the GI50 in the assay on SF-539, with KM12 and in the assay with OVCAR-3 was > 100 µM (inactive) throughout.

Take `C#CCN(Cc1ccc2nc(-c3ccccc3)c(Cl)nc2c1)c1ccc(Cl)c(Cl)c1`: the GI50 in the assay on CAKI-1, with UACC-257, in the assay on SK-MEL-2, with NCI-H460, in the assay with CCRF-CEM and in the assay with COLO 205 was > 100 µM (inactive) in each case. Besides, the GI50 with UO-31, in the assay with SK-MEL-5, in the assay on SK-MEL-28, in the assay on TK-10, in the assay with A549 and with OVCAR-5 was > 100 µM (inactive) in each case. In addition, the GI50 was > 100 µM (inactive) in the assay on SF-539, > 100 µM (inactive) in the assay with KM12 and 60 µM (inactive) with OVCAR-3.

`CC1=CC(=O)NCCN1C`: the GI50 with CAKI-1 was > 100 µM (inactive); in the assay with UACC-257 it was > 100 µM (inactive); in the assay on SK-MEL-2, > 100 µM (inactive); with NCI-H460, > 100 µM (inactive); in the assay on CCRF-CEM it was 75.2 µM (inactive); with COLO 205, > 100 µM (inactive). The GI50 in the assay on UO-31, with SK-MEL-5, in the assay on SK-MEL-28, in the assay with TK-10, in the assay on A549 and in the assay on OVCAR-5 was > 100 µM (inactive) throughout. Further, the GI50 in the assay on SF-539, in the assay on KM12 and in the assay on OVCAR-3 was > 100 µM (inactive) in each case.

On to `O=C(NC1C(=O)NNC1c1cccc([N+](=O)[O-])c1)c1ccccc1` (stereo unspecified), for which the GI50 with UACC-257, in the assay with SK-MEL-2, in the assay on RPMI-8226, in the assay on NCI-H460, with CCRF-CEM and in the assay on COLO 205 was > 100 µM (inactive) throughout. Further, the GI50 in the assay on UO-31, in the assay on SK-MEL-5, in the assay with SK-MEL-28, with TK-10, in the assay on A549 and with OVCAR-5 was > 100 µM (inactive) throughout. In addition, the GI50 with KM12 and in the assay on OVCAR-3 was > 100 µM (inactive) each time.

Regarding `O=C(CC(=O)c1cccc2ccccc12)C(=O)Nc1ccc(Cl)cc1`, the GI50 with CAKI-1, with UACC-257, in the assay with RPMI-8226, with NCI-H460, with CCRF-CEM and in the assay with COLO 205 was > 100 µM (inactive) in each case. The GI50 in the assay on UO-31, in the assay on SK-MEL-5, in the assay with TK-10, in the assay with A549, in the assay with OVCAR-5 and in the assay on SF-539 was > 100 µM (inactive) in each case. Besides, the GI50 in the assay on KM12 and with OVCAR-3 was > 100 µM (inactive) in each case.

Regarding `CC(=O)Oc1c2c(c(OC(C)=O)c3c1n(C(C)=O)c1ccccc1n3C(C)=O)n(C(C)=O)c1ccccc1n2C(C)=O`, the GI50 with CAKI-1 was 10.9 µM (inactive); in the assay with UACC-257 it was 3.42 µM (inactive); with SK-MEL-2, 5.18 µM (inactive); with RPMI-8226, 2.48 µM (inactive); with NCI-H460, 3.68 µM (inactive); in the assay on CCRF-CEM, 2.5 µM (inactive). For the same molecule, the GI50 is 12.6 µM (inactive) in the assay with UO-31; 7.76 µM (inactive) in the assay with SK-MEL-5; 2.89 µM (inactive) with SK-MEL-28; 6.22 µM (inactive) in the assay on A549; 13.4 µM (inactive) in the assay on SF-539; 3.76 µM (inactive) in the assay on KM12. In addition, the GI50 in the assay on OVCAR-3 is 1.92 µM (inactive).

As for `CC(N)CC(=O)O` (stereo unspecified), the GI50 in the assay with UACC-257, with SK-MEL-2, with RPMI-8226, in the assay on NCI-H460, in the assay with CCRF-CEM and with COLO 205 was > 5000 µM (inactive) in each case. Moreover, the GI50 in the assay on UO-31 is > 5000 µM (inactive); in the assay with SK-MEL-5, > 5000 µM (inactive); in the assay on SK-MEL-28, > 5000 µM (inactive); in the assay with TK-10 it was > 5000 µM (inactive); with A549 it was 2850 µM (inactive); in the assay with OVCAR-5, > 5000 µM (inactive). In addition, the GI50 with SF-539, in the assay on KM12 and in the assay with OVCAR-3 was > 5000 µM (inactive) in each case.

With `COc1cc(C2c3cc4c(cc3C(NCC(O)CO)C3COC(=O)[C@H]23)OCO4)cc(OC)c1OC` (stereo partly specified), the GI50 in the assay on UACC-257 was > 100 µM (inactive); with RPMI-8226 it was 0.321 µM (active); in the assay on NCI-H460, 0.435 µM (active); with CCRF-CEM, 0.407 µM (active); in the assay with COLO 205, 0.184 µM (active); in the assay on UO-31, 4.37 µM (inactive). For the same molecule, the GI50 in the assay on SK-MEL-28 is 0.617 µM (active); in the assay with TK-10, > 100 µM (inactive); with OVCAR-5, > 100 µM (inactive); in the assay with SF-539, 0.146 µM (active); in the assay on KM12, 0.217 µM (active).

Turning to `CO[C@H](C(=O)O[C@H]1C(=O)N2CCC3CCC1C32C)c1ccccc1` (stereo partly specified), the GI50 in the assay with CAKI-1, with UACC-257, in the assay on SK-MEL-2, in the assay with RPMI-8226, in the assay with NCI-H460 and in the assay on CCRF-CEM was > 100 µM (inactive) each time. Further, the GI50 in the assay on COLO 205, with UO-31, in the assay with SK-MEL-5, in the assay on SK-MEL-28, with A549 and in the assay with OVCAR-5 was > 100 µM (inactive) throughout. Moreover, the GI50 with SF-539, in the assay with KM12 and in the assay with OVCAR-3 was > 100 µM (inactive) in each case.
